Positions of bridges follow the written chain, without caps; N, C: chain ends. Non-standard residues stand in square brackets, D forms with d. Residues, ends and D or L forms follow the SMILES beside them. ξ: configuration not given here. *: point of attachment. X31 = CCCCCCCCCCCCCCCC(=O)NCCCC[C@H](NC(=O)[C@H](CC(=O)O)CC(=O)CCOCCOCCOCCOCCOCCOCCN*)C(N)=O; PEG6 = NCCOCCOCCOCCOCCOCCOCCC(=O)O; Palmitoyl = CCCCCCCCCCCCCCCC(=O)*; Hyp = O=C(O)[C@@H]1C[C@@H](O)CN1; Myristoyl = CCCCCCCCCCCCCC(=O)*; NMeNle = CCCC[C@H](NC)C(=O)O; NMeA = CN[C@@H](C)C(=O)O; Dab = NCC[C@H](N)C(=O)O; ξC = NC(CS)C(=O)O

Results on ten compounds are retold here after patent publication US10633419B2, “Immunomodulators” (BRISTOL-MYERS SQUIBB COMPANY, priority 2014, dated 2020).

T1 sequence (Q9NZQ7 with tags, fused parts or gaps): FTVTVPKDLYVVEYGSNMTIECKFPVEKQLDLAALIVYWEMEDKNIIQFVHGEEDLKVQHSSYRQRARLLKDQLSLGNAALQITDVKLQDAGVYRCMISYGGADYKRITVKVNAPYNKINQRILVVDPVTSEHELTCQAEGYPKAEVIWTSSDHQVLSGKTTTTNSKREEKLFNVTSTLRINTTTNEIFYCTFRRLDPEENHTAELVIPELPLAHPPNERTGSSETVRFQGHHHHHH

One assay has as its target T1, PD-L1 (Homo sapiens, UniProt Q9NZQ7).
T1 construct: hPDL1(19-239)-TVMV-His; made in house; host or cells: HEK293T
Put plainly: PD-1/PD-L1 Homogenous Time-Resolved Fluorescence (HTRF) binding assay (PD-1-Ig/PD-L1-His). Particulars: inhibition of PD-1-Ig binding to PD-L1-TVMV-His; value given as number; read-out: HTRF IC50. The text has this: The ability of the macrocyclic peptides of the present disclosure to bind to PD-L1 was investigated using a PD-1/PD-L1 Homogenous Time-Resolved Fluorescence (HTRF) binding assay.
Homogenous Time-Resolved Fluorescence (HTRF) Assays of Binding of Soluble PD-1 to Soluble PD-L1. Soluble PD-1 and soluble PD-L1 refers to proteins with carboxyl-end truncations that remove the transmembrane-spanning regions and are fused to heterologous sequences, specifically the Fc portion of the human immunoglobuling G sequence (Ig) or the hexahistidine epitope tag (His). All binding studies were performed in an HTRF assay buffer consisting of dPBS supplemented with 0.1% (w/v) bovine serum albumin and 0.05% (v/v) Tween-20. For the PD-1-Ig/PD-L1-His binding assay, inhibitors were pre-incubated with PD-L1-His (10 nM final) for 15 m in 4 μl of assay buffer, followed by addition of PD-1-Ig (20 nM final) in 1 μl of assay buffer and further incubation for 15m. PD-L1 fusion proteins from either human, cynomologous macaques, mouse, or other species were used. HTRF detection was achieved using europium crypate-labeled anti-Ig monoclonal antibody (1 nM final) and allophycocyanin (APC) labeled anti-His monoclonal antibody (20 nM final). Antibodies were diluted in HTRF detection buffer and 5 μl was dispensed on top of binding reaction. The reaction was allowed to equilibrate for 30 minutes and signal (665 nm/620 nm ratio) was obtained using an EnVision fluorometer. Additional binding assays were established between PD-1-Ig/PD-L2-His (20 and 5 nM, respectively), CD80-His/PD-L1-Ig (100 and 10 nM, respectively) and CD80-His/CTLA4-Ig (10 and 5 nM, respectively). Binding/competition studies between biotinylated Compound No. 71 and human PD-L1-His were performed as follows. Macrocyclic peptide inhibitors were pre-incubated with PD-L1-His (10 nM final) for 60 minutes in 4 μl of assay buffer followed by addition of biotinylated Compound No. 71 (0.5 nM final) in 1 μl of assay buffer. Binding was allowed to equilibrate for 30 minutes followed by addition of europium crypated labeled Streptavidin (2.5 pM final) and APC-labeled anti-His (20 nM final) in 5 μl of HTRF buffer. The reaction was allowed to equilibrate for 30m and signal (665 nm/620 nm ratio) was obtained using an EnVision fluorometer.
Recombinant Proteins. Carboxyl-truncated human PD-1 (amino acids 25-167) with a C-terminal human Ig epitope tag [hPD-1 (25-167)-3S-IG] and human PD-L1 (amino acids 18-239) with a C-terminal His epitope tag [hPD-L1(19-239)-tobacco vein mottling virus protease cleavage site (TVMV)-His] were expressed in HEK293T cells and purified sequentially by recombinant Protein A affinity chromatography and size exclusion chromatography. Human PD-L2-His (Sino Biologicals), CD80-His (Sino Biologicals), CTLA4-Ig (RnD Systems) were all obtained through commercial sources.
The term IC50 denotes the midpoint of a concentration-inhibition curve. In the case of `CCCCCCCCCCCCCC(=O)NCCCC[C@H](NC(=O)[C@H](CC(=O)O)NC(=O)CCOCCOCCOCCOCCOCCOCCNC(=O)[C@H](CC(=O)O)NC(=O)CNC(=O)[C@@H]1CSCC(=O)N[C@@H](Cc2ccc(O)cc2)C(=O)N(C)[C@@H](C)C(=O)N[C@@H](CC(=O)O)C(=O)N2CCC[C@H]2C(=O)N[C@@H](Cc2cnc[nH]2)C(=O)N[C@@H](CC(C)C)C(=O)N2C[C@H](O)C[C@H]2C(=O)N[C@@H](Cc2c[nH]c3ccccc23)C(=O)N[C@@H](CO)C(=O)N[C@@H](Cc2c[nH]c3ccccc23)C(=O)N(C)[C@@H](CCCC)C(=O)N(C)[C@@H](CCCC)C(=O)N[C@@H](CCCNC(=N)N)C(=O)N1)C(N)=O` [Example 11017] ({CH2CO}-Y[NMeA]DPHL[Hyp]WSW[NMeNle][NMeNle]RCGD[PEG6]DK(Myristoyl)-NH2; thioether N-14), the IC50 amounted to 0.259 µM.

The same assay, now with this note: inhibition of PD-1-Ig binding to PD-L1-TVMV-His; value given as range class; read-out: HTRF IC50.
In the case of `CCCCCCCCCCCCCC(=O)NCCCC[C@H](NC(=O)[C@H](CC(=O)O)NC(=O)CNC(=O)[C@@H]1CSCC(=O)N[C@@H](Cc2ccc(O)cc2)C(=O)N(C)[C@@H](C)C(=O)N[C@@H](CC(=O)O)C(=O)N2CCC[C@H]2C(=O)N[C@@H](Cc2cnc[nH]2)C(=O)N[C@@H](CC(C)C)C(=O)N2C[C@H](O)C[C@H]2C(=O)N[C@@H](Cc2c[nH]c3ccccc23)C(=O)N[C@@H](CO)C(=O)N[C@@H](Cc2c[nH]c3ccccc23)C(=O)N(C)[C@@H](CCCC)C(=O)N(C)[C@@H](CCCC)C(=O)N[C@@H](CCCNC(=N)N)C(=O)N1)C(N)=O` [Example 11016] ({CH2CO}-Y[NMeA]DPHL[Hyp]WSW[NMeNle][NMeNle]RCGDK(Myristoyl)-NH2; thioether N-14), the half-inhibitory concentration (IC50) was in the range of 0.01 to 0.099 µM.

With `CCCCCCCCCCCCCCCC(=O)NCCCC[C@H](NC(=O)[C@H](CC(=O)O)CC(=O)CCOCCOCCOCCOCCOCCOCCNC(=O)[C@H](CC(=O)O)NC(=O)CNC(=O)C1CSCC(=O)N[C@@H](Cc2ccc(O)cc2)C(=O)N(C)[C@@H](C)C(=O)N[C@@H](CC(=O)O)C(=O)N2CCC[C@H]2C(=O)N[C@@H](Cc2cnc[nH]2)C(=O)N[C@@H](CC(C)C)C(=O)N2C[C@H](O)C[C@H]2C(=O)N[C@@H](Cc2c[nH]c3ccccc23)C(=O)N[C@@H](CO)C(=O)N[C@@H](Cc2c[nH]c3ccccc23)C(=O)N(C)[C@@H](CCCC)C(=O)N(C)[C@@H](CCCC)C(=O)N[C@@H](CCCNC(=N)N)C(=O)N1)C(N)=O` (stereo partly shown) [Example 11018] ({CH2CO}-Y[NMeA]DPHL[Hyp]WSW[NMeNle][NMeNle]R[ξC]GD-X31; thioether N-14), the 50% inhibitory concentration (IC50) is 0.01 to 0.099 µM.

As to `CCCCCCCCCCCCCCCC(=O)NCCCC[C@H](NC(=O)[C@@H]1CSCC(=O)N[C@@H](Cc2ccc(O)cc2)C(=O)N(C)[C@@H](C)C(=O)N[C@@H](CC(N)=O)C(=O)N2CCC[C@H]2C(=O)N[C@@H](CCN)C(=O)N[C@@H](CC(C)C)C(=O)N2C[C@H](O)C[C@H]2C(=O)N[C@@H](Cc2c[nH]c3ccccc23)C(=O)N[C@@H](CO)C(=O)N[C@@H](Cc2c[nH]c3ccccc23)C(=O)N(C)[C@@H](CCCC)C(=O)N(C)[C@@H](CCCC)C(=O)N[C@@H](CCCNC(=N)N)C(=O)N1)C(N)=O` [Example 11019] ({CH2CO}-Y[NMeA]NP[Dab]L[Hyp]WSW[NMeNle][NMeNle]RCK(Palmitoyl)-NH2; thioether N-14), the 50% inhibitory concentration (IC50) fell in the range of 0.1 to 1.6 µM.

`CCCCCCCCCCCCCCCC(=O)NCCCC[C@H](NC(=O)CNC(=O)[C@@H]1CSCC(=O)N[C@@H](Cc2ccc(O)cc2)C(=O)N(C)[C@@H](C)C(=O)N[C@@H](CC(N)=O)C(=O)N2CCC[C@H]2C(=O)N[C@@H](CCN)C(=O)N[C@@H](CC(C)C)C(=O)N2C[C@H](O)C[C@H]2C(=O)N[C@@H](Cc2c[nH]c3ccccc23)C(=O)N[C@@H](CO)C(=O)N[C@@H](Cc2c[nH]c3ccccc23)C(=O)N(C)[C@@H](CCCC)C(=O)N(C)[C@@H](CCCC)C(=O)N[C@@H](CCCNC(=N)N)C(=O)N1)C(N)=O` [Example 11020] ({CH2CO}-Y[NMeA]NP[Dab]L[Hyp]WSW[NMeNle][NMeNle]RCGK(Palmitoyl)-NH2; thioether N-14): the IC50 fell in the range of 0.1 to 1.6 µM.

Turning to `CCCCCCCCCCCCCCCC(=O)NCCCC[C@H](NC(=O)CNC(=O)[C@H](CO)NC(=O)CNC(=O)[C@H](CO)NC(=O)CNC(=O)[C@@H]1CSCC(=O)N[C@@H](Cc2ccc(O)cc2)C(=O)N(C)[C@@H](C)C(=O)N[C@@H](CC(N)=O)C(=O)N2CCC[C@H]2C(=O)N[C@@H](CCN)C(=O)N[C@@H](CC(C)C)C(=O)N2C[C@H](O)C[C@H]2C(=O)N[C@@H](Cc2c[nH]c3ccccc23)C(=O)N[C@@H](CO)C(=O)N[C@@H](Cc2c[nH]c3ccccc23)C(=O)N(C)[C@@H](CCCC)C(=O)N(C)[C@@H](CCCC)C(=O)N[C@@H](CCCNC(=N)N)C(=O)N1)C(N)=O` [Example 11021] ({CH2CO}-Y[NMeA]NP[Dab]L[Hyp]WSW[NMeNle][NMeNle]RCGSGSGK(Palmitoyl)-NH2; thioether N-14), the half-maximal inhibitory concentration (IC50) lay in the range of 0.1 to 1.6 µM.

As to `CCCCCCCCCCCCCCCC(=O)NCCCC[C@H](NC(=O)[C@H](CO)NC(=O)CNC(=O)CNC(=O)CNC(=O)CNC(=O)[C@@H]1CSCC(=O)N[C@@H](Cc2ccc(O)cc2)C(=O)N(C)[C@@H](C)C(=O)N[C@@H](CC(N)=O)C(=O)N2CCC[C@H]2C(=O)N[C@@H](CCN)C(=O)N[C@@H](CC(C)C)C(=O)N2C[C@H](O)C[C@H]2C(=O)N[C@@H](Cc2c[nH]c3ccccc23)C(=O)N[C@@H](CO)C(=O)N[C@@H](Cc2c[nH]c3ccccc23)C(=O)N(C)[C@@H](CCCC)C(=O)N(C)[C@@H](CCCC)C(=O)N[C@@H](CCCNC(=N)N)C(=O)N1)C(N)=O` [Example 11022] ({CH2CO}-Y[NMeA]NP[Dab]L[Hyp]WSW[NMeNle][NMeNle]RCGGGGSK(Palmitoyl)-NH2; thioether N-14), the IC50 lay in the range of 0.1 to 1.6 µM.

For `CCCCCCCCCCCCCCCC(=O)NCCCC[C@H](NC(=O)[C@H](CO)NC(=O)CNC(=O)[C@H](CO)NC(=O)CNC(=O)[C@@H]1CSCC(=O)N[C@@H](Cc2ccc(O)cc2)C(=O)N(C)[C@@H](C)C(=O)N[C@@H](CC(N)=O)C(=O)N2CCC[C@H]2C(=O)N[C@@H](CCN)C(=O)N[C@@H](CC(C)C)C(=O)N2C[C@H](O)C[C@H]2C(=O)N[C@@H](Cc2c[nH]c3ccccc23)C(=O)N[C@@H](CO)C(=O)N[C@@H](Cc2c[nH]c3ccccc23)C(=O)N(C)[C@@H](CCCC)C(=O)N(C)[C@@H](CCCC)C(=O)N[C@@H](CCCNC(=N)N)C(=O)N1)C(N)=O` [Example 11023] ({CH2CO}-Y[NMeA]NP[Dab]L[Hyp]WSW[NMeNle][NMeNle]RCGSGSK(Palmitoyl)-NH2; thioether N-14), the IC50 fell in the range of 0.1 to 1.6 µM.

With `CCCCCCCCCCCCCCCC(=O)NCCCC[C@H](NC(=O)[C@H](CO)NC(=O)CNC(=O)CNC(=O)CNC(=O)[C@@H]1CSCC(=O)N[C@@H](Cc2ccc(O)cc2)C(=O)N(C)[C@@H](C)C(=O)N[C@@H](CC(N)=O)C(=O)N2CCC[C@H]2C(=O)N[C@@H](CCN)C(=O)N[C@@H](CC(C)C)C(=O)N2C[C@H](O)C[C@H]2C(=O)N[C@@H](Cc2c[nH]c3ccccc23)C(=O)N[C@@H](CO)C(=O)N[C@@H](Cc2c[nH]c3ccccc23)C(=O)N(C)[C@@H](CCCC)C(=O)N(C)[C@@H](CCCC)C(=O)N[C@@H](CCCNC(=N)N)C(=O)N1)C(N)=O` [Example 11024] ({CH2CO}-Y[NMeA]NP[Dab]L[Hyp]WSW[NMeNle][NMeNle]RCGGGSK(Palmitoyl)-NH2; thioether N-14), the IC50 was 0.1 to 1.6 µM.

For the compound `CCCCCCCCCCCCCCCC(=O)NCCCC[C@H](NC(=O)[C@H](CC(=O)O)NC(=O)CNC(=O)CNC(=O)[C@@H]1CSCC(=O)N[C@@H](Cc2ccc(O)cc2)C(=O)N(C)[C@@H](C)C(=O)N[C@@H](CC(N)=O)C(=O)N2CCC[C@H]2C(=O)N[C@@H](CCN)C(=O)N[C@@H](CC(C)C)C(=O)N2C[C@H](O)C[C@H]2C(=O)N[C@@H](Cc2c[nH]c3ccccc23)C(=O)N[C@@H](CO)C(=O)N[C@@H](Cc2c[nH]c3ccccc23)C(=O)N(C)[C@@H](CCCC)C(=O)N(C)[C@@H](CCCC)C(=O)N[C@@H](CCCNC(=N)N)C(=O)N1)C(N)=O` [Example 11026] ({CH2CO}-Y[NMeA]NP[Dab]L[Hyp]WSW[NMeNle][NMeNle]RCGGDK(Palmitoyl)-NH2; thioether N-14), the IC50 lay in the range of 0.1 to 1.6 µM.
